# Reference: patent publication US20110171332A1, “LEUCOJUM BULB EXTRACTS AND USE THEREOF” (I.B.R. ISRAELI BIOTECHNOLOGY RESEARCH LTD., priority 2008, published 2011)
# Test system: nerve-muscle co-culture
# Assay: Muscle contraction frequency in nerve-muscle co-culture
# Assay type: cell-based, human, rat
# Conditions: carisoprodol 5×10^−3M; for Contraction (%): % of contractions at T0; for Contraction (%) / Result: single wells
# Experimental: The nerve-muscle co-culture model is a model suited to studying the influence of a substance on a muscle contraction frequency. The number of muscular contractions is counted during a given time, before and after applying the examined substance to the co-culture. The number of contractions in the presence of the substance is expressed in percentage compared to the initial number of contractions. An inhibitory effect on muscle contraction is determined if a significant reduction or blocking of the muscular contraction frequency is observed in at least 2 wells out of 3 wells containing the nerve-muscle co-culture.
# Human muscular cells were seeded in 24-wells culture plates. Cells were incubated at 37° C., 5% CO2 during the entire culture duration.
# After 5 days of culture, spinal cords were isolated from rat embryos, and were cut in small parts (explants). One explant per culture well was placed on the muscular cells, and both cell types were cultivated in 24-wells plate for 21 days.
# During the cultivation period, the muscular cells merge and form muscular fibers. The motor neurons present in the spinal cord emit nervous extensions which contact the muscular fibers. Neuro-muscular junctions are formed and muscular contractions appear.
# After 21 days of co-culture, the model was mature and functional. The muscular fibers innervated spontaneously and contracted in a regular way.
# A stock solution of the test extract was prepared in the culture medium. This solution was applied to the nerve-muscle culture.
# The culture medium alone served as a negative control.
# The positive control was carisoprodol, a drug which blocks the muscular contraction in a reversible way. A stock solution of carisoprodol was prepared in DMSO at 1M. This solution was diluted at 1/200 into the culture medium (final concentration of 5×10^−3M). Three culture wells were used per treatment (control/test extract).
# The trial started at the 21st day of the culture.
# The microscope is equipped with a motorized stage piloted by a LUCIA software. It is also combined with a camera and connected to a computer allowing the recording of video sequences.
# For each selected culture well, a muscle fiber showing regular contractions is referenced. The XY data of this fiber were registered using the LUCIA software. The frequency of the contractions of this fiber was manually counted during 30 seconds, and a video sequence was recorded (T0). The same operation was carried out for all wells.
# The test extract and the references were applied to the nerve-muscle culture, and the trial system was incubated at 37° C., 5% CO2.
# After 2 hours, 6 hours and 24 hours of incubation, the contraction frequency was counted again during 30 seconds and a video sequence was also recorded for each counting.
# For each culture well, the number of muscular contractions counted in the presence of the examined extract is expressed in percentage compared to the number of contractions counted before extract application (T0).
# When the frequency of contractions is in the range of between 80%-120% compared to T0, the modulation of the muscular contractions frequency is not considered as significant. This range is based on the fact that during the time, the muscular contraction frequency can vary slightly, independent on the conditions applied.
# The results are expressed as follows: • No significant variation in the muscular contractions frequency: contractions percentage between 80 and 120%, symbolized by (=) • A significant reduction in the muscular contractions frequency: contractions percentage <80%, symbolized by (−). • Blocking of the muscular contractions frequencies: contractions percentage=0%, symbolized by (0) • A significant increase in the muscular contractions frequencies: contractions percentage >120%, symbolized by (+).
# The product effect is assessed only if the same result is obtained in at least 2 out of 3 culture wells (i.e. 2 out of 3 muscle fibers).
smiles,measurement,setting,value
"CCCC(C)(COC(N)=O)COC(=O)NC(C)C (stereo not shown) [Carisoprodol, carisoprodol]",conclusion,2 h incubation,Blocked
same,Contraction (%),2 h incubation,0%
same,conclusion,"2 h incubation, listed as carisoprodol",complete blockage
same,Result,2 h incubation,0 (Blocking of the muscular contractions frequencies: contractions percentage=0%)
same,conclusion,6 h incubation,Blocked
same,Contraction (%),6 h incubation,0%
same,conclusion,"6 h incubation, listed as carisoprodol",complete blockage
same,Result,6 h incubation,0 (Blocking of the muscular contractions frequencies: contractions percentage=0%)
same,conclusion,24 h incubation,Blocked
same,Contraction (%),24 h incubation,0%
same,conclusion,"24 h incubation, listed as carisoprodol",complete blockage
same,Result,24 h incubation,0 (Blocking of the muscular contractions frequencies: contractions percentage=0%)
same,reversibility of the effect on muscle contractions after rinsing off,after rinsing off,reversible
